Measured values from US20240391882A1 (Mirati Therapeutics, Inc., priority 2023, published 2024).

What was measured:
Assay type in all cases: cell-based
[1] = tested on: pAKT in T47D (PI3Kα H1047R mutant) cells; assay: Inhibition of pAKT (alphaLISA Surefire Ultra AKT 1/2/3 pS473) in T47D cells; settings: Homo sapiens; T47D (PI3Kα H1047R mutant) cells, 24 hr compound incubation, alphaLISA pS473; read-out: T47D (H1047R) pAKT 24 hr (IC50)
How it was run: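 Cells in HBSS were dosed from 10.4 μm (1:4 serial dilution, 10 concentrations) and incubated about 24 hours at 37° C, then lysed. pAKT S473 measured by alphaLISA after overnight bead incubation. Signal normalised to alpelisib (3.125 μm) and DMSO controls; IC50 from four-parameter fit.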

[2] = tested on: T47D (PI3Kα H1047R mutant) cells; assay: Cell viability (CellTiter-Glo 2.0) in T47D cells; settings: Homo sapiens, T47D, 72 h, approximately 72 hours
How it was run: (§1)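 SKBR3 or T47D cells, 1000 per well, were seeded overnight and then exposed ~72 h at 37° C to 10 concentrations of compound, 1:4 dilutions from 10 μm. Viability read by CellTiter-Glo luminescence as percent of vehicle; IC50 from four-parameter variable-slope fit.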

[3] = tested on: SKBR3 (PI3Kα wild type) cells; assay: Cell viability (CellTiter-Glo 2.0) in SKBR3 cells; settings: Homo sapiens, SK-BR-3; SKBR3 (PI3Kα wild type) cells, approximately 72 hours, CellTiter-Glo 2.0; read-out: SKBR3 (WT) Viability IC50
How it was run: as §1

IC50 [1]	IC50 [2]	IC50 [3]	Structure (SMILES)
0.00045 µM	0.048 µM	> 10 µM	Cc1cc([C@@H](C)Nc2ccc(Cl)nc2C(=O)O)c2nc(N3CCc4cnccc4C3)c(C#N)nc2c1 [Example 216, (R)-6-chloro-3-((1-(2-cyano-3-(3,4-dihydro-2,6-naphthyridin-2(1H)-yl)-7-methylquinoxalin-5-yl)ethyl)amino)picolinic acid]
0.00069 µM	0.064 µM	> 10 µM	Cc1cc([C@@H](C)Nc2ccc(Cl)nc2C(=O)O)c2nc(N3CCc4ccc(C#N)cc4C3)c(C#N)nc2c1 [Example 217, (R)-6-chloro-3-((1-(2-cyano-3-(7-cyano-3,4-dihydroisoquinolin-2(1H)-yl)-7-methylquinoxalin-5-yl)ethyl)amino)picolinic acid]
0.00088 µM	0.147 µM	> 10 µM	Cc1cc([C@@H](C)Nc2ccc(Cl)nc2C(=O)O)c2nc(N3CCc4c(ccn(C)c4=O)C3)c(C#N)nc2c1 [Example 221, (R)-6-chloro-3-((1-(2-cyano-7-methyl-3-(6-methyl-5-oxo-3,4,5,6-tetrahydro-2,6-naphthyridin-2(1H)-yl)quinoxalin-5-yl)ethyl)amino)picolinic acid]
0.0042 µM	0.225 µM	> 10 µM	Cc1cc([C@@H](C)Nc2ccc(Cl)nc2C(=O)O)c2nc(N3CCc4ccn(C)c(=O)c4C3)c(C#N)nc2c1 [Example 222, (R)-6-chloro-3-((1-(2-cyano-7-methyl-3-(7-methyl-8-oxo-3,4,7,8-tetrahydro-2,7-naphthyridin-2(1H)-yl)quinoxalin-5-yl)ethyl)amino)picolinic acid]
0.02 µM	1.03 µM	> 10 µM	Cc1cc([C@@H](C)Nc2ccc(Cl)nc2C(=O)O)c2nc(-c3ccc(=O)n(C)c3)c(C#N)nc2c1 [Example 223, (R)-6-chloro-3-((1-(2-cyano-7-methyl-3-(1-methyl-6-oxo-1,6-dihydropyridin-3-yl)quinoxalin-5-yl)ethyl)amino)picolinic acid]
0.0332 µM	0.368 µM	> 10 µM	Cc1cc([C@@H](C)Nc2ccc(Cl)nc2C(=O)O)c2nc(N3CC4CS(=O)(=O)CC4C3)c(C#N)nc2c1 (stereo partly drawn) [Example 228, 6-chloro-3-(((1R)-1-(2-cyano-3-(2,2-dioxidotetrahydro-1H-thieno[3,4-c]pyrrol-5(3H)-yl)-7-methylquinoxalin-5-yl)ethyl)amino)picolinic acid]
0.0013 µM	0.0258 µM	> 10 µM	C[C@@H](Nc1ccc(Cl)nc1C(=O)O)c1cc(C(F)F)cc2nc(C#N)c(N3CCOCC3)nc12 [Example 231, (R)-6-chloro-3-((1-(2-cyano-7-(difluoromethyl)-3-morpholinoquinoxalin-5-yl)ethyl)amino)picolinic acid]
0.00017 µM	0.0844 µM	> 10 µM	Cc1cc([C@@H](C)Nc2ccc(Cl)nc2C(=O)O)c2nc(C3CCOCC3)c(C#N)nc2c1 [Example 233, (R)-6-chloro-3-((1-(2-cyano-7-methyl-3-(tetrahydro-2H-pyran-4-yl)quinoxalin-5-yl)ethyl)amino)picolinic acid]
0.002 µM	0.183 µM	> 10 µM	Cc1cc([C@@H](C)Nc2ccc(Cl)nc2C(=O)O)c2nc(N3CCO[C@H](CO)C3)c(C#N)nc2c1 [Example 235A, 6-chloro-3-(((R)-1-(2-cyano-3-((S)-2-(hydroxymethyl)morpholino)-7-methylquinoxalin-5-yl)ethyl)amino)picolinic acid]
0.0018 µM	0.262 µM	> 10 µM	Cc1cc([C@@H](C)Nc2ccc(Cl)nc2C(=O)O)c2nc(N3CCO[C@@H](CO)C3)c(C#N)nc2c1 [Example 235B, 6-chloro-3-(((R)-1-(2-cyano-3-((R)-2-(hydroxymethyl)morpholino)-7-methylquinoxalin-5-yl)ethyl)amino)picolinic acid]

Continued, molecule first:

Structure (SMILES)	IC50 [1]	IC50 [2]	IC50 [3]
Cc1cc([C@@H](C)Nc2ccc(Cl)nc2C(=O)O)c2nc(N3CCCC3)c(C#N)nc2c1 [Example 69, (R)-6-chloro-3-((1-(2-cyano-7-methyl-3-(pyrrolidin-1-yl)quinoxalin-5-yl)ethyl)amino)picolinic acid]	0.0021 µM	0.0502 µM	9.65 µM
Cc1cc([C@@H](C)Nc2ccc(Cl)nc2C(=O)O)c2nc(N3CCC(F)(F)C3)c(C#N)nc2c1 [Example 70, (R)-6-chloro-3-((1-(2-cyano-3-(3,3-difluoropyrrolidin-1-yl)-7-methylquinoxalin-5-yl)ethyl)amino)picolinic acid]	0.0026 µM	0.031 µM	9.65 µM
Cc1cc([C@@H](C)Nc2ccc(Cl)nc2C(=O)O)c2nc(N3CCC4(CC3)C(F)(F)C4(F)F)c(C#N)nc2c1 [Example 82, (R)-6-chloro-3-((1-(2-cyano-7-methyl-3-(1,1,2,2-tetrafluoro-6-azaspiro[2.5]octan-6-yl)quinoxalin-5-yl)ethyl)amino)picolinic acid]	0.0045 µM	0.121 µM	5.03 µM
C[C@@H](Nc1ccc(Cl)nc1C(=O)O)c1cc(Cl)cc2nc(C#N)c(N3CC4(COC4)C3)nc12 [Example 145]	0.0014 µM	0.09 µM	9.96 µM
Cc1cc([C@@H](C)Nc2ccc(Cl)nc2C(=O)O)c2nc(N3CCO[C@H](C(F)(F)F)C3)c(C#N)nc2c1 [Example 190A, 6-chloro-3-(((R)-1-(2-cyano-7-methyl-3-((S)-2-(trifluoromethyl)morpholino)quinoxalin-5-yl)ethyl)amino)picolinic acid]	0.0044 µM	0.271 µM	> 10 µM
Cc1cc([C@@H](C)Nc2ccc(Cl)nc2C(=O)O)c2nc(N3CCO[C@@H](C(F)(F)F)C3)c(C#N)nc2c1 [Example 190B, 6-chloro-3-(((R)-1-(2-cyano-7-methyl-3-((R)-2-(trifluoromethyl)morpholino)quinoxalin-5-yl)ethyl)amino)picolinic acid]	0.0173 µM	0.764 µM	> 10 µM
CO[C@H]1CCCN(c2nc3c([C@@H](C)Nc4ccc(Cl)nc4C(=O)O)cc(C)cc3nc2C#N)C1 [Example 196A, 6-chloro-3-(((R)-1-(2-cyano-3-((S)-3-methoxypiperidin-1-yl)-7-methylquinoxalin-5-yl)ethyl)amino)picolinic acid]	0.0012 µM	0.0621 µM	> 10 µM
CO[C@@H]1CCCN(c2nc3c([C@@H](C)Nc4ccc(Cl)nc4C(=O)O)cc(C)cc3nc2C#N)C1 [Example 196B, 6-chloro-3-(((R)-1-(2-cyano-3-((R)-3-methoxypiperidin-1-yl)-7-methylquinoxalin-5-yl)ethyl)amino)picolinic acid]	0.0022 µM	0.0614 µM	> 10 µM
Cc1cc([C@@H](C)Nc2ccc(Cl)nc2C(=O)O)c2nc(N3CCN(c4cc(C)no4)CC3)c(C#N)nc2c1 [Example 200, (R)-6-chloro-3-((1-(2-cyano-7-methyl-3-(4-(3-methylisoxazol-5-yl)piperazin-1-yl)quinoxalin-5-yl)ethyl)amino)picolinic acid]	0.0012 µM	0.0172 µM	5.47 µM
Cc1cc([C@@H](C)Nc2ccc(Cl)nc2C(=O)O)c2nc(N3CCN(c4cc(C)on4)CC3)c(C#N)nc2c1 [Example 201, (R)-6-chloro-3-((1-(2-cyano-7-methyl-3-(4-(5-methylisoxazol-3-yl)piperazin-1-yl)quinoxalin-5-yl)ethyl)amino)picolinic acid]	0.00027 µM	0.0105 µM	7.81 µM
Cc1cc([C@@H](C)Nc2ccc(Cl)nc2C(=O)O)c2nc(N3CCC(N4CCCCC4=O)CC3)c(C#N)nc2c1 [Example 202, (R)-6-chloro-3-((1-(2-cyano-7-methyl-3-(2-oxo-[1,4′-bipiperidin]-1′-yl)quinoxalin-5-yl)ethyl)amino)picolinic acid]	0.0014 µM	0.0764 µM	9.93 µM
Cc1cc([C@@H](C)Nc2cccnc2C(=O)O)c2nc(N3CCOCC3)c(C#N)nc2c1 [Example 203, (R)-3-((1-(2-cyano-7-methyl-3-morpholinoquinoxalin-5-yl)ethyl)amino)picolinic acid]	0.0251 µM	0.559 µM	2.23 µM
Cc1cc([C@@H](C)Nc2cccnc2C(=O)O)c2nc(N3CCC(F)(F)C3)c(C#N)nc2c1 [Example 204, (R)-3-((1-(2-cyano-3-(3,3-difluoropyrrolidin-1-yl)-7-methylquinoxalin-5-yl)ethyl)amino)picolinic acid]	0.0581 µM	0.393 µM	1.85 µM
COC[C@H]1[C@H]2CN(c3nc4c([C@@H](C)Nc5ccc(Cl)nc5C(=O)O)cc(C)cc4nc3C#N)C[C@@H]12 [Example 213, 6-chloro-3-(((R)-1-(2-cyano-3-((1R,5S,6S)-6-(methoxymethyl)-3-azabicyclo[3.1.0]hexan-3-yl)-7-methylquinoxalin-5-yl)ethyl)amino)picolinic acid]	0.00091 µM	0.061 µM	9.55 µM
Cc1cc([C@@H](C)Nc2ccc(Cl)nc2C(=O)O)c2nc(N3CC4C(F)C4C3)c(C#N)nc2c1 (stereo partly drawn) [Example 215, 6-chloro-3-(((1R)-1-(2-cyano-3-(6-fluoro-3-azabicyclo[3.1.0]hexan-3-yl)-7-methylquinoxalin-5-yl)ethyl)amino)picolinic acid]	0.0016 µM	0.028 µM	> 10 µM
